Results as given in US20130065928A1, “BIOMARKERS FOR PI3K-DRIVEN CANCER” (WYETH LLC, priority 2010, published 2013).

Legend:
PKN3 = biological target: T1, PKN3 (Homo sapiens, UniProt Q6P5Z2); experiment: Kinase activity of PKN3 in transfected cells, phospho-GSKα read-out (Western blot); assay type: cell-based; conditions: cells transfected with WT PKN3; changing concentrations; FIG. 2
T1 construct: The full-length cDNA of human PKN3 (WT or wt) was amplified by PCR and cloned into a GST-fusion expression vector; GST; expressed in transfected cells; host or cells: HEK293T
Source text: (§1) The full-length cDNA of human PKN3 (WT or wt) was amplified by PCR and cloned into a GST-fusion expression vector under the control in a doxycycline (Dox)-inducible promoter. A kinase dead (KD or kd) version of PKN3, which comprises a K588R substitution, was also cloned into the same vector using the same strategy. The proteins were expressed in HEK293T cells transfected with the PKN3 WT and KD constructs. […] WT PKN3 is phosphorylated at the turn motif threonine (P*-PKN3^T860) and phosphorylates the GSKα substrate, whereas the KD version does neither (FIG. 1).
(§2) For protein extraction, cells were washed twice with cold phosphate-buffered saline (PBS) and lysed at 4° C. in lysis buffer containing 20 mM Tris (pH 7.5), 137 mM NaCl, 15% (vol/vol) glycerol, 1% (vol/vol) Nonidet P-40 (NP-40), 2 mM phenylmethylsulfonyl fluoride, […] of aprotinin per ml, […] leupeptin, 2 mM benzamidine, 1 mM sodium vanadate, 25 mM β-glycerolphosphate, 50 mM NaF, and 10 mM Na-pyrophosphate. Lysates were cleared by centrifugation at 14,000×g for 5 min, and aliquots of the lysates were analyzed for protein expression and enzyme activity (see below). Samples were separated by sodium dodecyl sulfate-polyacrylamide gel electrophoresis (SDS-PAGE) and transferred to nitrocellulose filters (Schleicher & Schuell). Filters were blocked in TBST buffer (10 mM Tris-HCl [pH 7.5], 150 mM NaCl, 0.05% [vol/vol] Tween 20, 0.5% [wt/vol] sodium azide) containing 5% (wt/vol) dried milk. The respective antibodies were added in TBST at appropriate dilutions. Bound antibody was detected with anti-mouse-, anti-goat, or anti-rabbit-conjugated alkaline phosphatase (Santa Cruz Biotechnology) in TBST, washed, and developed with nitroblue tetrazolium and 5-bromo-4-chloro-3-indolylphosphate (Promega). Alternatively, horseradish peroxidase-conjugated secondary antibodies were used and developed by enhanced chemiluminescence (Amersham).
Various ATP-type kinase inhibitors were assessed for their ability to inhibit the kinase activity of both recombinant wildtype (WT) and kinase dead (KD) versions of PKN3.

kinase dead PKN3 = biological target: T2, kinase dead PKN3 (Homo sapiens, UniProt Q6P5Z2, K588R); experiment: Priming of kinase dead PKN3 for turn motif threonine phosphorylation by ATP binding pocket competitive inhibitors (Western blot); assay type: cell-based; conditions: KD PKN3 (K588R) in transfected cells; changing concentrations; FIG. 3
T2 construct: The full-length cDNA of human PKN3 (WT or wt) was amplified by PCR and cloned into a GST-fusion expression vector; GST; expressed in transfected cells; host or cells: HEK293T
Source text: as §1, §2

PKN3-T860 = experiment: Turn motif (T860) phosphorylation of Y27632-primed PKN3 after kinase inhibitor treatment (Western blot); assay type: cell-based, human; conditions: WT and KD PKN3, doxycycline 1 μg/ml 5 hours, primed with 10 μM Y27632, inhibitor 7 hours; FIGS. 4 and 5
Source text: (§3) The full-length cDNA of human PKN3 (WT or wt) was amplified by PCR and cloned into a GST-fusion expression vector under the control in a doxycycline (Dox)-inducible promoter. A kinase dead (KD or kd) version of PKN3, which comprises a K588R substitution, was also cloned into the same vector using the same strategy. The proteins were expressed in HEK293T cells transfected with the PKN3 WT and KD constructs.
as §2, with “Filters were blocked in TBST buffer (10 mM Tris-HCl [pH 7.5], 150 mM NaCl, 0.05% [vol/vol] Tween 20, 0.5% [wt/vol] sodium azide) containing 5% (wt/vol) dried milk. The respective antibodies were added in TBST at appropriate dilutions.” left out, “Alternatively, horseradish peroxidase-conjugated secondary antibodies were used and developed by enhanced chemiluminescence (Amersham).” left out

PKN3-T718 = experiment: Activation loop (T718) phosphorylation of Y27632-primed PKN3 after kinase inhibitor treatment (Western blot); assay type: cell-based, human; conditions: WT and KD PKN3, doxycycline 1 μg/ml 5 hours, primed with 10 μM Y27632, inhibitor 7 hours; FIGS. 4 and 5
Source text: as §3
as §2, with “Filters were blocked in TBST buffer (10 mM Tris-HCl [pH 7.5], 150 mM NaCl, 0.05% [vol/vol] Tween 20, 0.5% [wt/vol] sodium azide) containing 5% (wt/vol) dried milk. The respective antibodies were added in TBST at appropriate dilutions.” left out, “Alternatively, horseradish peroxidase-conjugated secondary antibodies were used and developed by enhanced chemiluminescence (Amersham).” left out

S6K-ST389 = experiment: Phosphorylation of S6K-ST389, a target of mTORC1 (Western blot); assay type: cell-based; conditions: PKN3-transfected cells, inhibitor 7 hours; FIGS. 4 and 5
Method: as §2
(§4) PKN antibodies have been described in Leenders, 2004. […]

AKT-S473 = experiment: Phosphorylation of AKT-S473, a target of mTORC2 (Western blot); assay type: cell-based; conditions: PKN3-transfected cells, inhibitor 7 hours; FIGS. 4 and 5
Method: as §2, §4

[1] = system: HEK293T cells transfected with wild-type PKN3; experiment: PKN3-induced morphology changes in cells (photomicrographs); assay type: cell-based; conditions: FIG. 6, panel C
Source text: FIG. 6 depicts photomicrographs of HEK293T cells transfected with wild-type (panels A, B and C) or kinase-dead (panels D, E and F) PKN3 constructs under control of a doxycycline responsive promoter, in the absence of doxycycline (panels A and D), in the presence of doxycycline (panels B and E) or in the presence of doxycycline and WAY-125132 (panels C and F).
The effects of WAY-125132 on PKN3-induced morphology changes in cells were examined.

PKN1 = experiment: Phosphorylated PKN1 (Western blot); assay type: cell-based; conditions: PKN3-transfected cells, inhibitor 7 hours; FIGS. 4 and 5, panels C
Method: as §2, with “(Amersham). […]” for “(Amersham).”

PKN2 = experiment: Phosphorylated PKN2 (Western blot); assay type: cell-based; conditions: PKN3-transfected cells, inhibitor 7 hours; FIGS. 4 and 5, panels C
Method: as §2, with “(Amersham). […]” for “(Amersham).”

T1 sequence (Q6P5Z2 whole entry, the tested form may be a part): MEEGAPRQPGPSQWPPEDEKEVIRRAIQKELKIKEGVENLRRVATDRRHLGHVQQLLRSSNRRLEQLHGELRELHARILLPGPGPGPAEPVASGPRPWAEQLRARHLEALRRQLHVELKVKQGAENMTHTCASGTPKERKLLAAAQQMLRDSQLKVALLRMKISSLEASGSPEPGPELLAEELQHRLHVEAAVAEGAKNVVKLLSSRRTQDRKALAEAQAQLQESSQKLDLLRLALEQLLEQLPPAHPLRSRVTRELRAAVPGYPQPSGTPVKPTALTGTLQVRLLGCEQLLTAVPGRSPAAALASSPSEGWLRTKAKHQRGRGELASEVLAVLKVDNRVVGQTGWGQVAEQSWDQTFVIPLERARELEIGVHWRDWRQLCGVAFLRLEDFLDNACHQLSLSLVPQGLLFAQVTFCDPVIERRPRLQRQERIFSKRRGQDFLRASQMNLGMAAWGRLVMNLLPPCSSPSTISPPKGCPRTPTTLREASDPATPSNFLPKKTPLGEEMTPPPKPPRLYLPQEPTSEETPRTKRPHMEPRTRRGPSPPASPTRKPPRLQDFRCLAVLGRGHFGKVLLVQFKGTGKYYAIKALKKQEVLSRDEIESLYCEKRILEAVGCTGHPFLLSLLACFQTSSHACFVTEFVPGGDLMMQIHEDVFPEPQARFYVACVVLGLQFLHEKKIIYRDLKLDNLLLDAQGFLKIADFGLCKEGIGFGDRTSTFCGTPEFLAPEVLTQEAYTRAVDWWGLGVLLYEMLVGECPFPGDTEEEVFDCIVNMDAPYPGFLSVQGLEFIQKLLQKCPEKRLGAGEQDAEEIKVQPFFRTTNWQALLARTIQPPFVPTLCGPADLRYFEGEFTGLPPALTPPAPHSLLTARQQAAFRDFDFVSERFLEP
T2 sequence (Q6P5Z2 whole entry K588R, the tested form may be a part): as the sequence (Q6P5Z2 whole entry, the tested form may be a part) above, with K588R counted along it

SMILES	inhibition of kinase activity of kinase active phosphorylated PKN3 (phospho-GSKα read-out) (PKN3)	priming of kinase dead PKN3 to become phosphorylated at the turn motif threonine (kinase dead PKN3)	inhibition of PKN3 T860 phosphorylation (PKN3-T860)	inhibition of PKN3 T718 phosphorylation (PKN3-T718)	inhibition of phosphorylation of S6K-ST389 (S6K-ST389)	inhibition of phosphorylation of AKT-S473 (AKT-S473)	effect on transformed phenotype of doxycycline treated cells transfected with WT PKN3 [1]	effect on PKN1 (PKN1)	effect on PKN2 (PKN2)
Oc1ccc(-c2nc(-c3ccncc3)c(-c3ccc(F)cc3)[nH]2)cc1 [SB202190]	inhibit the kinase activity of kinase active phosphorylated PKN3 in a concentration dependent manner	primed kinase dead PKN3 to become phosphorylated at the turn motif threonine in a concentration dependent manner							
Cl.Cl.N=C(N)NN=C(Cn1ccnc1)c1ccc(Cl)cc1Cl [WAY-125132, 2-[1-(2,4-Dichlorophenyl)-2-(1H-imidazol-1-yl)ethylidene]hydrazinecarboximidamide dihydrochloride]			inhibit T860 phosphorylation in a dose dependent manner	not T718 phosphorylation	inhibit the phosphorylation of S6K-ST389	inhibit the phosphorylation	reversed this effect		
C[C@@H](N)[C@H]1CC[C@H](C(=O)Nc2ccncc2)CC1 [Y27632]	inhibit the kinase activity of kinase active phosphorylated PKN3 in a concentration dependent manner	primed kinase dead PKN3 to become phosphorylated at the turn motif threonine in a concentration dependent manner							
CO[C@H]1C[C@@H]2CC[C@@H](C)[C@@](O)(O2)C(=O)C(=O)N2CCCC[C@H]2C(=O)O[C@H]([C@H](C)C[C@@H]2CC[C@@H](OC(=O)C(C)(CO)CO)[C@H](OC)C2)CC(=O)[C@H](C)/C=C(\C)[C@@H](O)[C@@H](OC)C(=O)[C@H](C)C[C@H](C)/C=C/C=C/C=C/1C [CCI-779, (3S,6R,7E,9R,10R,12R,14S,15E,17E,19E,21S,23S,26R,27R,34aS)-9,10,12,13,14,21,22,23,24,25,26,27,32,33,34,34a-Hexadecahydro-9,27-dihydroxy-3-[(1R)-2-[(1S,3R,4R)-4-hydroxy-3-methoxycyclohexyl]-1-methylethyl]-10,21-dimethoxy-6,8,12,14,20,26-hexamethyl-23,27-epoxy-3H-pyrido[2,1-c][1,4]oxaazacyclohentriacontine-1,5,11,28,29(4H,6H,31H)-pentone 4′-[2,2-bis(hydroxymethyl)propionate]]			had no effect	had no effect	inhibit S6K-ST389	had no effect		had no effect	had no effect
CCc1[nH]c(-c2ccc(OC)cc2)nc1-c1ccncc1 [SB202474]	not	not							
